Experimental data reported in patent US12084437B2, “Halo-substituted piperidines as orexin receptor modulators” (AstraZeneca AB, priority 2016, dated 2024).

Key:
OX1 = target: T1, OX1 (Homo sapiens, UniProt O43613); assay: Orexin receptor cell-based functional assay, [Ca2+]i by FLIPR, CHO-OX1 cells; conditions: FLIPR calcium, antagonism of EC90 of [OX], read-out: OXI, IC50
T1 construct: expressed in transfected cells; host or cells: CHO (CHO-OX1)
T1 sequence (O43613 1-425): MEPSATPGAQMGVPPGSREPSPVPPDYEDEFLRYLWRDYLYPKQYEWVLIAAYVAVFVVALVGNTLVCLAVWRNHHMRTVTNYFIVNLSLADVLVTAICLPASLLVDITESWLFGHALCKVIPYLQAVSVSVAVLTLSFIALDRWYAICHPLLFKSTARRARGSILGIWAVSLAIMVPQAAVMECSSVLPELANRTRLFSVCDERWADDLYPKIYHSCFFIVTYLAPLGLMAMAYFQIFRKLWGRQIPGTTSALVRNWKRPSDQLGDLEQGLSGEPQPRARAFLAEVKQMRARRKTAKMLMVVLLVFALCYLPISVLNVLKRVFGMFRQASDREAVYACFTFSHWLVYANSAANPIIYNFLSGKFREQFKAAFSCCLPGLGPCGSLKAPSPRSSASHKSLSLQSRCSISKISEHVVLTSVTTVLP

OX2 = target: T2, OX2 (Homo sapiens, UniProt O43614); assay: Orexin receptor cell-based functional assay, [Ca2+]i by FLIPR, CHO-OX2 cells; conditions: FLIPR calcium, antagonism of EC90 of [OX]
T2 construct: expressed in transfected cells; host or cells: CHO (CHO-OX2)
T2 sequence (O43614 1-444): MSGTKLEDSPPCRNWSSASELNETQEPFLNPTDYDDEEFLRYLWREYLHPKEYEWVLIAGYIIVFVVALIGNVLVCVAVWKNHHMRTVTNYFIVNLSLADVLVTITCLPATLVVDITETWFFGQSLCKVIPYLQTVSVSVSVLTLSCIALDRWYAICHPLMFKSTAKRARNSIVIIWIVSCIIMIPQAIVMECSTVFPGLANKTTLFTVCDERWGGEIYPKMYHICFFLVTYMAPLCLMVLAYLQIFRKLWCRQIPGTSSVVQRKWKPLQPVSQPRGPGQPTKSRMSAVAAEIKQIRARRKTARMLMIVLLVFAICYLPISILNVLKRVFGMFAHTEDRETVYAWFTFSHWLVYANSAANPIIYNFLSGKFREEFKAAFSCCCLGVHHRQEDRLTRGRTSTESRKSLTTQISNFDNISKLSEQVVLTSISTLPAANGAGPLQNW
Summary of the method: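 CHO cells expressing human OX1 or OX2 (20,000/well, grown overnight) were loaded with Calcium6 dye plus 2.5 mM probenecid for 2 h at 37 °C, then preincubated 30 min with compound (0.1 nM–10 µM). FLIPR fluorescence (ex 488/em 540 nm) was tracked before and after an EC90 orexin challenge.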

Row | SMILES | IC50 (OX1) [nM] | IC50 (OX2) [nM]
1 | C[C@@H]1CC(F)(F)CN(C(=O)c2nn(C)cc2-c2ncccn2)[C@@H]1CNc1ncc(C(F)(F)F)cc1F [Compound 228, ((2S,3R)-5,5-difluoro-2-(((3-fluoro-5-(trifluoromethyl)pyridin-2-yl)amino)methyl)-3-methylpiperidin-1-yl)(1-methyl-4-(pyrimidin-2-yl)-1H-pyrazol-3-yl)methanone] | 14 | > 5000
2 | C[C@@H]1CC(F)(F)CN(C(=O)c2nn(C)cc2-c2cccc(C(F)(F)F)n2)[C@@H]1CNc1ncc(C(F)(F)F)cn1 [Compound 229, ((2S,3R)-5,5-difluoro-3-methyl-2-(((5-(trifluoromethyl)pyrimidin-2-yl)amino)methyl)piperidin-1-yl)(1-methyl-4-(6-(trifluoromethyl)pyridin-2-yl)-1H-pyrazol-3-yl)methanone] | 7 | > 5000
3 | C[C@@H]1CC(F)(F)CN(C(=O)c2nn(C)cc2-c2cncnc2)[C@@H]1CNc1ncc(C(F)(F)F)cn1 [Compound 230, ((2S,3R)-5,5-difluoro-3-methyl-2-(((5-(trifluoromethyl)pyrimidin-2-yl)amino)methyl)piperidin-1-yl)(1-methyl-4-(pyrimidin-5-yl)-1H-pyrazol-3-yl)methanone] | 74 | > 5000
4 | Cc1ccc(-c2ccc(C)nc2C(=O)N2CC(F)(F)C[C@@H](C)[C@H]2CNc2ncc(C(F)(F)F)cn2)nc1 [Compound 231, ((2S,3R)-5,5-difluoro-3-methyl-2-(((5-(trifluoromethyl)pyrimidin-2-yl)amino)methyl)piperidin-1-yl)(5,6′-dimethyl-[2,3′-bipyridin]-2′-yl)methanone] | 14 | > 5000
5 | CCn1cc(-c2ncccn2)c(C(=O)N2CC(F)(F)C[C@@H](C)[C@H]2CNc2ncc(C(F)(F)F)cn2)n1 [Compound 232, ((2S,3R)-5,5-difluoro-3-methyl-2-(((5-(trifluoromethyl)pyrimidin-2-yl)amino)methyl)piperidin-1-yl)(1-ethyl-4-(pyrimidin-2-yl)-1H-pyrazol-3-yl)methanone] | 82 | > 5000
6 | Cc1c(-c2ncccn2)c(C(=O)N2CC(F)(F)C[C@@H](C)[C@H]2CNc2ncc(C(F)(F)F)cn2)nn1C [Compound 233, ((2S,3R)-5,5-difluoro-3-methyl-2-(((5-(trifluoromethyl)pyrimidin-2-yl)amino)methyl)piperidin-1-yl)(1,5-dimethyl-4-(pyrimidin-2-yl)-1H-pyrazol-3-yl)methanone] | 1 | > 5000
7 | Cc1ccc(C#CC2CC2)c(C(=O)N2CC(F)(F)C[C@@H](C)[C@H]2CNc2ncc(C(F)(F)F)cn2)n1 [Compound 234, (3-(cyclopropylethynyl)-6-methylpyridin-2-yl)((2S,3R)-5,5-difluoro-3-methyl-2-(((5-(trifluoromethyl)pyrimidin-2-yl)amino)methyl)piperidin-1-yl)methanone] | 29 | > 5000
8 | CC#Cc1ccc(C)nc1C(=O)N1CC(F)(F)C[C@@H](C)[C@H]1CNc1ncc(C(F)(F)F)cn1 [Compound 235, ((2S,3R)-5,5-difluoro-3-methyl-2-(((5-(trifluoromethyl)pyrimidin-2-yl)amino)methyl)piperidin-1-yl)(6-methyl-3-(prop-1-yn-1-yl)pyridin-2-yl)methanone] | 250 | > 5000
9 | CC(C)n1cc(-c2ncccn2)c(C(=O)N2CC(F)(F)C[C@@H](C)[C@H]2CNc2ncc(C(F)(F)F)cn2)n1 [Compound 237, ((2S,3R)-5,5-difluoro-3-methyl-2-(((5-(trifluoromethyl)pyrimidin-2-yl)amino)methyl)piperidin-1-yl)(1-isopropyl-4-(pyrimidin-2-yl)-1H-pyrazol-3-yl)methanone] | 1700 | > 5000
10 | C[C@@H]1CC(F)(F)CN(C(=O)c2nn(CC(F)(F)F)cc2-c2ncccn2)[C@@H]1CNc1ncc(C(F)(F)F)cn1 [Compound 238, ((2S,3R)-5,5-difluoro-3-methyl-2-(((5-(trifluoromethyl)pyrimidin-2-yl)amino)methyl)piperidin-1-yl)(4-(pyrimidin-2-yl)-1-(2,2,2-trifluoroethyl)-1H-pyrazol-3-yl)methanone] | > 2000 | > 5000
11 | CCc1cnc(NC[C@@H]2[C@H](C)CC(F)(F)CN2C(=O)c2nc(C)sc2-c2ccc(F)cc2)nc1 [Compound 239, ((2S,3R)-2-(((5-ethylpyrimidin-2-yl)amino)methyl)-5,5-difluoro-3-methylpiperidin-1-yl)(5-(4-fluorophenyl)-2-methylthiazol-4-yl)methanone] | 29 | > 5000
12 | Cc1ccc(-c2nnn(C)n2)c(C(=O)N2CC(F)(F)C[C@@H](C)[C@H]2CNc2ncc(C(F)(F)F)cn2)n1 [Compound 240, ((2S,3R)-5,5-difluoro-3-methyl-2-(((5-(trifluoromethyl)pyrimidin-2-yl)amino)methyl)piperidin-1-yl)(6-methyl-3-(2-methyl-2H-tetrazol-5-yl)pyridin-2-yl)methanone] | 29 | > 5000
13 | C[C@@H]1CC(F)(F)CN(C(=O)c2nn(C)cc2-c2ccncn2)[C@@H]1CNc1ncc(C(F)(F)F)cn1 [Compound 241, ((2S,3R)-5,5-difluoro-3-methyl-2-(((5-(trifluoromethyl)pyrimidin-2-yl)amino)methyl)piperidin-1-yl)(1-methyl-4-(pyrimidin-4-yl)-1H-pyrazol-3-yl)methanone] | > 1000 | > 5000
14 | C[C@@H]1CC(F)(F)CN(C(=O)c2nn(C)cc2-c2ncc(F)cn2)[C@@H]1CNc1ncc(C(F)(F)F)cc1F [Compound 242, ((2S,3R)-5,5-difluoro-2-(((3-fluoro-5-(trifluoromethyl)pyridin-2-yl)amino)methyl)-3-methylpiperidin-1-yl)(4-(5-fluoropyrimidin-2-yl)-1-methyl-1H-pyrazol-3-yl)methanone] | 5 | > 5000
15 | C[C@@H]1CC(F)(F)CN(C(=O)c2nn(C)cc2-c2ncc(F)cn2)[C@@H]1COc1ncc(C(F)(F)F)cn1 [Compound 246] | 4820 | > 5000
16 | C[C@@H]1CC(F)(F)CN(C(=O)c2nn(C)cc2-c2ncccn2)[C@@H]1COc1ncc(C(F)(F)F)cc1F [Compound 247] | 437 | > 5000
17 | C[C@@H]1CC(F)(F)CN(C(=O)c2nn(C)cc2-c2ncc(F)cn2)[C@@H]1COc1ccc(C(F)(F)F)cn1 [Compound 248] | 50 | > 5000
18 | C[C@@H]1CC(F)(F)CN(C(=O)c2nn(C)nc2-c2ccc(Cl)cn2)[C@@H]1CNc1ncc(C(F)(F)F)cn1 [Compound 249] | 8 | > 5000
19 | C[C@@H]1CC(F)(F)CN(C(=O)c2cc(F)ccc2-c2nnn(C)n2)[C@@H]1CNc1ncc(C(F)(F)F)cn1 [Compound 252, ((2S,3R)-5,5-difluoro-3-methyl-2-(((5-(trifluoromethyl)pyrimidin-2-yl)amino)methyl)piperidin-1-yl)(5-fluoro-2-(2-methyl-2H-tetrazol-5-yl)phenyl)methanone] | 8 | > 5000
20 | C[C@@H]1CC(F)(F)CN(C(=O)c2cn(C)nc2-c2ccccc2)[C@@H]1CNc1ncc(Cl)cn1 [Compound 254] | 70 | > 5000
21 | C[C@@H]1CC(F)(F)CN(C(=O)c2nn(C)cc2-c2ncc(F)cn2)[C@@H]1CN(C)c1ncc(C(F)(F)F)cn1 [Compound 263] | 57 | > 5000
22 | Cc1c(-c2ncc(F)cn2)c(C(=O)N2CC(F)(F)C[C@@H](C)[C@H]2CNc2ncc(C(F)(F)F)cn2)nn1C [Compound 264, ((2S,3R)-5,5-difluoro-3-methyl-2-(((5-(trifluoromethyl)pyrimidin-2-yl)amino)methyl)piperidin-1-yl)(4-(5-fluoropyrimidin-2-yl)-1,5-dimethyl-1H-pyrazol-3-yl)methanone] | 3 | > 5000
